101 molecules from ChEMBL document CHEMBL3507680, “University of Dundee, Gates Library screen for HepG2 cell viability” can be followed below.

The data set can be described thus: Human HepG2 cell viability assay in 384 well format. It counts as toxicity, cell-based. Set-up: dose 125 nL, time 70.5 hour; cytotoxicity at 70.5 h: concentration not given beside the values. Conditions: HepG2 cells, read-out: Inhibition.
As for `Cc1ccc(NC(=O)Cn2ccc3c(=O)n(C)ccc32)cc1F`, the cytotoxicity at 70.5 h was -5.99%.
For the molecule `CS(=O)(=O)c1ccc(-c2ccccc2C(=O)O)cc1`, the cytotoxicity at 70.5 h is -4.68%.
The same measure for `CNC(=O)c1cc(C)n(-c2ccccc2)n1`: -2.98%; for `CN(C)C(=O)c1cccnc1SCc1ccccc1Cl`: 1.28%; for `CN(C)C(=O)c1cccnc1SCc1ccccc1C#N`: -4.31%.
The result for `CSc1ncccc1C(=O)N(CCO)Cc1ccccc1` reads -0.362%; that for `O=C(NC1CCCCC1)c1cc(Br)cnc1N1CCCCC1`, -4.56%; that for `O=C1CC2(CCN(C(=O)c3ccncc3)CC2)Oc2c(Cl)cc(Cl)cc21`, -5.1%.
The same measure for `O=C1CC2(CCN(C(=O)c3ccccn3)CC2)Oc2c(Br)cc(Br)cc21`: 1.74%; for `Cc1ccc2c(c1)C(=O)CC1(CCN(Cc3ccccc3)CC1)O2`: -2.96%.
In the case of `CN(C)C(=O)CN1CCC2(CC1)CC(=O)c1c(ccc3ccccc13)O2`, the cytotoxicity at 70.5 h was -1.64%.
As to `NC(=O)CN1CCC2(CC1)CC(=O)c1ccc3ccccc3c1O2`, the cytotoxicity at 70.5 h was -2.33%.
Turning to `CCOC(=O)CN1CCC2(CC1)CC(=O)c1ccc3ccccc3c1O2`, the cytotoxicity at 70.5 h was -5.23%.
For the molecule `O=C(NCCc1ccncc1)c1cccnc1OCC(F)(F)F`, the cytotoxicity at 70.5 h was -1.85%.
The result for `O=C(NCCOCCO)c1cccnc1Oc1ccc(Cl)cc1` reads 16.6%; that for `O=C(c1cccnc1Oc1ccc(Cl)cc1)N1CC[C@@H](O)C1`, 24.9%.
The result for `COCCNC(=O)c1cccnc1Oc1ccc(Cl)cc1` reads -7.58%; that for `O=C(NC[C@H]1CCCC[C@H]1O)c1cccc2[nH]c(-c3ccco3)nc12`, 15.3%; that for `CC(=O)N1N=C(c2ccccc2)OC1C(=O)N(C)CCc1ccccc1` (stereo unspecified), 20%.
The result for `CC(=O)N1N=C(c2ccccc2)OC1C(=O)NCCc1cccc(F)c1` (stereo unspecified) reads 4.79%; that for `CC(=O)N1N=C(c2ccco2)OC1C(=O)NCC(C)C` (stereo unspecified), -4.23%; that for `Cc1cc(Cl)ccc1-n1ncc(C(=O)N(C)CCc2ccccn2)c1N`, 49.3%.
For the molecule `CC1(C)OCC(CNC(=O)c2cnn(-c3cccc(Cl)c3Cl)c2N)O1` (stereo unspecified), the cytotoxicity at 70.5 h worked out at 17%.
As to `CC(C)c1ccc(-n2ncc(C(=O)NCC3COC(C)(C)O3)c2N)cc1` (stereo unspecified), the cytotoxicity at 70.5 h stood at 26.2%.
On to `CN(CCc1ccccn1)C(=O)c1cnn(-c2ccccc2F)c1N`, for which the cytotoxicity at 70.5 h came to 7.25%.
With `Cc1ccc(-n2ncc(C(=O)NC3CC(C)(C)NC(C)(C)C3)c2N)cc1`, the cytotoxicity at 70.5 h was found to be 19.8%.
The result for `CCOC(=O)C1CCN(C(=O)c2cnn(-c3ccc(C)cc3)c2N)CC1` reads -5.44%.
The result for `Cc1ccc(-n2ncc(C(=O)N(C)C3CCN(C)CC3)c2N)cc1C` reads 8.36%; that for `Cc1nn(-c2cc(Cl)cc(Cl)c2)c(C)c1CCC(=O)O`, -5.45%; that for `Cc1nn(-c2ccccc2Cl)c(C)c1CCC(=O)O`, 4.21%.
As to `CCOc1ccc(NC(=O)C2OC(c3cccs3)=NN2C(C)=O)cc1` (stereo unspecified), the cytotoxicity at 70.5 h worked out at 11.5%.
For the molecule `CC(=O)N1N=C(c2cccs2)OC1C(=O)Nc1ccc(C(C)C)cc1` (stereo unspecified), the cytotoxicity at 70.5 h was -2.48%.
As for `CCN(CC)CCNC(=O)CCc1c(C)nn(-c2cccc(Cl)c2)c1C`, the cytotoxicity at 70.5 h amounted to 0.617%.
Consider `CCOC(=O)CNC(=O)Cn1c(-c2ccoc2)nc(C)c1C`, for which the cytotoxicity at 70.5 h came to 3.16%.
The same measure for `CN(CCC(O)c1ccccc1)Cc1nc(-c2ccccc2)no1` (stereo unspecified): -7.98%; for `CN(CCC(O)c1ccccc1)Cc1ccccc1C#N` (stereo unspecified): -5.67%.
The same measure for `Nc1c(N2CCCCC2)ncnc1N1CCOCC1`: 1.26%.
The same measure for `CN(C)C(=O)c1cc2ncc(C(=O)NC3CC3)cc2n1C`: -1.06%; for `CC(=O)c1cc2ncc(C(=O)NC3CCCCC3)cc2[nH]1`: 0.178%.
Take `CNC(=O)c1cnc2c(C)csc2c1`: the cytotoxicity at 70.5 h was determined as 22%.
The same measure for `Cc1csc2cc(C(=O)NC3CC3)cnc12`: -1.57%; for `COCCCNC(=O)c1cn(C(C)(C)C)c2ncccc12`: -5.22%.
The same measure for `O=C(c1cn(Cc2ccccc2)c2ncccc12)N1CCOCC1`: 2.42%.
The same measure for `CN1CCN(C(=O)c2cn(Cc3ccccc3)c3ncccc23)CC1`: -3.43%; for `O=C(NCCN1CCCCC1)C(c1ccccc1)N1CCCC1` (stereo unspecified): 2.81%.
Regarding `CCN(CC)CCNC(=O)CCc1c(C)nn(-c2ccccc2Br)c1C`, the cytotoxicity at 70.5 h came out at 8.21%.
The result for `N#CCCN(CC1CCCO1)C(=O)c1ccc(C#N)cc1` (stereo unspecified) reads -2.77%; that for `N#CCCN(CC1CCCO1)C(=O)c1ccc2nonc2c1` (stereo unspecified), 0.813%; that for `N#CCCN(CC1CCCO1)C(=O)c1ccsc1` (stereo unspecified), -4.29%.
The same measure for `O=C(NCCn1cccc1)C(c1ccccc1)N1CCCC1` (stereo unspecified): 1.81%.
The result for `CC(C)(C)C(=O)CN1CCc2ccccc2NCCC1=O` reads 3.4%; that for `COc1ccc2c(c1)CN(Cc1ccco1)C(=O)CCN2CC(C)(C)O`, 1.21%.
Regarding `COc1ccccc1CN1CC(O)CN(C(=O)OCC(C)C)CC1=O` (stereo unspecified), the cytotoxicity at 70.5 h was -10.9%.
As to `CS(=O)(=O)N1CC(=O)N(CCCc2ccccc2)CC(O)C1` (stereo unspecified), the cytotoxicity at 70.5 h was -8.69%.
For the molecule `CCS(=O)(=O)N1CC(=O)N(CCCc2ccccc2)CC(O)C1` (stereo unspecified), the cytotoxicity at 70.5 h was -3.91%.
The result for `COc1ccc(CC(=O)N2CC(=O)NCC(C)(C)C2)cc1` reads 14.8%; that for `O=S1(=O)c2cccnc2OC(COc2ccccc2)CN1CC1CC1` (stereo unspecified), -2.28%.
As for `O=S1(=O)c2cccnc2OC(Cc2ccccc2)CN1CC1CC1` (stereo unspecified), the cytotoxicity at 70.5 h came to 1.6%.
The result for `CC(C)(C)OCC1CN(Cc2cccs2)S(=O)(=O)c2cnccc2O1` (stereo unspecified) reads -2.07%.
The result for `CC(C)Cc1cc(NC(=O)c2n[nH]c3ccccc23)n(C)n1` reads -5.98%; that for `Cc1cnn(C2CCCN(C(=O)c3ccc(NC4CC4)nc3)C2)c1` (stereo unspecified), -13.3%; that for `COC(=O)c1cccn1C1CCN(C(=O)c2ccc(C)cc2O)CC1`, -8.93%.
The same measure for `CC(C)Cc1cc(NC(=O)c2cc(Cl)c[nH]2)n(C)n1`: -8.43%.
Turning to `Cc1nc(NC(=O)CCc2c(C)nc3cc(O)nn3c2C)sc1C`, the cytotoxicity at 70.5 h was -16.5%.
The same measure for `Cc1cnn(C2CCCN(C(=O)c3ccc(N4CCCC4)nc3)C2)c1` (stereo unspecified): -7.94%; for `CCOc1ccc(Cl)c(C(=O)N2CCN(CC(C)(C)O)CC2)n1`: -12.6%.
The result for `Cc1ccc(F)c(NS(=O)(=O)c2cc(C(=O)O)oc2C)c1` reads -10%; that for `CN(C(=O)C1CCCC1)C(c1cccc(F)c1)c1ccccn1` (stereo unspecified), 14.2%; that for `CC(C)c1nc(CN2CCCN(c3nccs3)CC2)no1`, 6.41%.
The result for `CC(=O)N1CCC(Nc2cc(F)ccc2OCC2CCCO2)CC1` (stereo unspecified) reads 11.4%; that for `COCCN1CCC(NCc2cc(F)ccc2F)C1` (stereo unspecified), 22.5%.
`CCc1noc(CN2CCCN(Cc3cccs3)CC2)n1`: the cytotoxicity at 70.5 h is -11.1%.
The same measure for `Cc1cc(C)c(C(=O)N2CCOCC2c2c(C)nn(C)c2C)o1` (stereo unspecified): -12.3%; for `CNC(=O)COc1ccc(CNc2cncc(-n3cccn3)n2)cc1`: -16.8%.
For the molecule `CCCc1noc(CN2CCN(c3nccs3)CC2)n1`, the cytotoxicity at 70.5 h is -6.87%.
The result for `COc1ncccc1NC(=O)N(Cc1ccc(C(N)=O)cc1)C1CC1` reads -12.7%; that for `COc1ncccc1NC(=O)N(Cc1ccco1)C1CC1`, -14.3%; that for `COc1ncccc1NC(=O)N(CC(C)C)C1CC1`, -8.09%.
The same measure for `COC(=O)Nc1ccc(CNc2cncc(-n3cccn3)n2)cc1`: -18.2%.
The result for `CC(C)OCc1ccc(CNc2cncc(-n3cccn3)n2)cc1` reads -5.97%; that for `CCCOc1ccc(CNc2cncc(-n3cccn3)n2)cc1`, -6.6%; that for `CCN(CC)C(=O)c1ccc(CNc2cncc(-n3cccn3)n2)cc1`, -7.26%.
In the case of `CN(C)c1cc(CNc2cncc(-n3cccn3)n2)ccn1`, the cytotoxicity at 70.5 h was -15.7%.
The result for `O=C(Nc1cc(C(F)(F)F)c[nH]c1=O)N1CCOCC1` reads -12.9%; that for `COC1CCN(C(=O)Nc2cc(C(F)(F)F)c[nH]c2=O)CC1`, -6.98%.
The same measure for `O=C(c1ccsc1)N1CCC(Nc2cccnn2)CC1`: -3.37%.
In the case of `c1ccc(CN2CCN(c3ccc4nncn4n3)CC2)nc1`, the cytotoxicity at 70.5 h is -9.47%.
The same measure for `c1ccc(CCN2CCN(c3ccc4nncn4n3)CC2)cc1`: -1.86%; for `Cc1ccc(NC2CCN(C(=O)c3ccc(F)c(C)c3)CC2)nn1`: 14.1%; for `COc1ncccc1NC(=O)N(C1CC1)C(C)C(C)C` (stereo unspecified): -13.6%.
The result for `O=C(O)c1c[nH]c2cc(NS(=O)(=O)c3cccc(F)c3F)ccc12` reads -9.73%; that for `O=C(O)c1c[nH]c2cc(NS(=O)(=O)c3cc(F)ccc3Cl)ccc12`, -9.41%; that for `Cc1ccc(F)cc1S(=O)(=O)Nc1ccc2c(C(=O)O)c[nH]c2c1`, 1.03%.
The same measure for `O=C(CC(F)(F)F)Nc1cc(F)ccc1OCC1CCCO1` (stereo unspecified): -11.3%; for `Cc1ccc(O)c(C(=O)N2CCOCC2c2c(C)nn(C)c2C)c1` (stereo unspecified): -2.1%; for `CCCC(=O)N(C)C(c1cccc(F)c1)c1ccccn1` (stereo unspecified): -3.08%.
With `Cn1cc(CCN2CCOC(CNc3cccnn3)C2)cn1` (stereo unspecified), the cytotoxicity at 70.5 h turned out to be 21.9%.
For `COc1ccc(C(=O)N2CCN(CCO)CC2)c(F)c1`, the cytotoxicity at 70.5 h was -4.32%.
The result for `CCn1c(C(=O)N2CCN(CC[S+](C)[O-])CC2)cc2ccccc21` (stereo unspecified) reads 0.944%; that for `CCN(Cc1ccc2c(c1)OCO2)S(=O)(=O)N(C)C`, 0.18%.
The same measure for `O=C(c1cccn1Cc1cccs1)N1CCN2CCCCC2C1` (stereo unspecified): 4.27%.
